Measured values taken from US7517657B2, “Peptides for detecting anti-double stranded DNA antibody and uses thereof” (Albert Einstein College of Medicine of Yeshiva University, priority 1995, dated 2009).
Entries after “also recorded” stand apart in the source; their conditions may differ. Square brackets hold non-standard residues; d marks the D form. Ends that are not written are not given here.

tested on: 52b3 anti-dsDNA monoclonal antibody; assay: ELISA binding of monoclonal antibody 52b3 to phage clones; parameters: species or system mouse; conditions: 52b3 selected phage, Table 3
Method: (§1) FIG. 1 is comprised of FIGS. 1A, 1B and 1C, and depicts the binding by Enzyme Linked ImmunoSorbent Assay of monoclonal antibodies R4A (FIG. 1A), 95 (FIG. 1B) and 52b3 (FIG. 1C) to phage clones. In each figure, the shaded columns are R4A-selected phage and unshaded columns are 52b3-selected phage.
(§2) Binding of antibodies to phage was determined by Enzyme-Linked ImmunoSorbent Assay (ELISA). Microtiter plates (Becton Dickinson, Lincoln Park, N.J.) were coated with 50 μl of antibody (1 μg/ml unless otherwise specified) in TBS (Tris/10 mM HCl pH 7.5, 150 mM NaCl) overnight at 4° C. Plates were washed 3 times with TBS/0.05% TWEEN® 20. Approximately 2.5×10^10 purified phage in 50 μl TBS were added to each well, incubated for 2 hours at 37° C., washed, and then were blocked with 150 μl of TBS/2% BSA for 1 hour at 37° C. Plates were incubated with 50 μl of a 1:4000 dilution in TBS of biotinylated sheep antibody to M13 phage (5′->3′, Inc., Boulder, Colo.) for 1 hour at 37° C. Plates were washed again and incubated with a 1:4000 dilution of […] streptavidin (Southern Biotech. Assoc. Inc., Birmingham, Ala.) and developed with Sigma-104 substrate tablets (Sigma Chemical Co.). Optical density was read at 405 nm.

In order of rising “Binding O.D. 405 nm” value:
1. T W C P V W I W D C (TWCPVWIWDC; displayed on phage; peptide (1)..(10) randomly-selected sequence obtained by biopanning a decapeptide library with 52b3) [φB16]  1.0
2. W D C Y V C R L E L (WDCYVCRLEL; displayed on phage; peptide (1)..(10) randomly-selected sequence obtained by biopanning a decapeptide library with 52b3) [φB21]  1.2
3. S L I S D E W P R W (SLISDEWPRW; displayed on phage; peptide (1)..(10) randomly-selected sequence obtained by biopanning a decapeptide library with 52b3) [φB24]  1.3
4. R H E D G D W P R V (RHEDGDWPRV; not fully specified (N-terminus, C-terminus)) [φB11]  1.4
5. S L D E L D W D S M (SLDELDWDSM; displayed on phage; peptide (1)..(10) randomly-selected sequence obtained by biopanning a decapeptide library with 52b3) [φB1]  1.4
6. E D L E G E W P M R (EDLEGEWPMR; displayed on phage; peptide (1)..(10) randomly-selected sequence obtained by biopanning a decapeptide library with 52b3) [φB22]  1.5
7. C G V D G R W P R W (CGVDGRWPRW; displayed on phage; peptide (1)..(10) randomly-selected sequence obtained by biopanning a decapeptide library with 52b3) [φB23]  1.5
8. L L D D G F W P R V (LLDDGFWPRV; displayed on phage; peptide (1)..(10) randomly-selected sequence obtained by biopanning a decapeptide library with 52b3) [φB25]  1.5
9. D G E W P R E G W S (DGEWPREGWS; displayed on phage; peptide (1)..(10) randomly-selected sequence obtained by biopanning a decapeptide library with 52b3) [φB56]  1.6
10. V L I C W D G C E T (VLICWDGCET; displayed on phage; peptide (1)..(10) randomly-selected sequence obtained by biopanning a decapeptide library with 52b3) [φB17]  1.6
11. S C Y Q S Y P G E C (SCYQSYPGEC; displayed on phage; peptide (1)..(10) randomly-selected sequence obtained by biopanning a decapeptide library with 52b3) [φB52]  1.8

tested on: R4A anti-dsDNA monoclonal antibody; assay: ELISA binding of monoclonal antibody R4A to phage clones; parameters: species or system mouse; conditions: R4A selected phage, Table 2
Method: as §1, §2

In order of falling “Binding O.D. 405 nm” value:
1. F S D C Y H S G C P [φ1-1]  1.5
2. D W E Y S V W L S N (DWEYSVWLSN; not fully specified (N-terminus, C-terminus)) [φ1-3]  1.3
3. W C E A D Y G R C P (WCEADYGRCP; displayed on phage; peptide (1)..(10) randomly-selected sequence obtained by biopanning a decapeptide library with R4A) [φ7-21]  1.3
4. L Y F E D Y R C E L (LYFEDYRCEL; displayed on phage; peptide (1)..(10) randomly-selected sequence obtained by biopanning a decapeptide library with R4A) [φ7-6]  1.2
5. D W D Y G A L M W A (DWDYGALMWA; displayed on phage; peptide (1)..(10) randomly-selected sequence obtained by biopanning a decapeptide library with R4A) [φ7-3]  1.1
6. Y S D W D Y S E G L (YSDWDYSEGL; displayed on phage; peptide (1)..(10) randomly-selected sequence obtained by biopanning a decapeptide library with R4A) [φ1-10]  1.1
7. S T E H S E A D L W (STEHSEADLW; displayed on phage; peptide (1)..(10) randomly-selected sequence obtained by biopanning a decapeptide library with R4A) [φ1-2]  0.7
8. V P V C D W E L N C (VPVCDWELNC; displayed on phage; peptide (1)..(10) randomly-selected sequence obtained by biopanning a decapeptide library with R4A) [φ7-26]  0.4

tested on: R4A binding to dsDNA; assay: Peptide inhibition of R4A binding to dsDNA by ELISA; parameters: species or system mouse; conditions: fluid phase inhibitor, FIG. 3, FIG. 4
Method: FIG. 3 depicts peptide inhibition of R4A (1 μg/ml) binding to calf thymus double stranded DNA by Enzyme Linked ImmunoSorbent Assay.
FIG. 4 sets forth a graph representing DWEYS (L and D peptides) (SEQ ID NO:2) inhibition of R4A binding to dsDNA. IMMULON® II plates were coated overnight with 100 μg/ml salmon sperm dsDNA. R4A at a final concentration of 5 μg/ml was incubated at varying concentrations of L or D DWEYS (SEQ ID NO:2) and transferred to the plate precoated with dsDNA. After a 2-hr incubation at 37° C., the plates were washed, and alkaline phosphotase-linked goat anti-mouse IgG2b antibody was added for 1 hour at 37° C. OD after addition of substrate was monitored at 405 nm.

For DWEYSVWLSN [R4A specific peptide], the “Inhibition of R4A binding to dsDNA” value was “inhibited dsDNA binding by the appropriate antibody only”.
For “DWEYS [L peptide DWEYS, R4A-specific L peptide DWEYS]”, the “Inhibition of R4A binding to dsDNA” value was “showed greater maximal inhibition; also recorded: inhibited the binding of R4A to dsDNA; also recorded: inhibited dsDNA better than the D peptide in vitro”.
With “DWEYS [D peptide DWEYS] (Ac-[dD][dW][dE][dY][dS]-NH2; SMILES CC(=O)N[C@H](CC(=O)O)C(=O)N[C@H](Cc1c[nH]c2ccccc12)C(=O)N[C@H](CCC(=O)O)C(=O)N[C@H](Cc1ccc(O)cc1)C(=O)N[C@H](CO)C(N)=O) [R4A-specific peptide DWEYS made from D amino acids]” the “Inhibition of R4A binding to dsDNA” value was “inhibited the binding of R4A to dsDNA”.

tested on: R4A deposition in glomeruli; assay: Assay of anti-dsDNA antibody (R4A) glomerular deposition in SCID mice; type: in vivo; conditions: 75 μg R4A and 150 μg peptide i.p., IgG immunostaining, FIG. 5
Method: FIG. 5 sets forth kidney sections exemplifying peptide inhibition of R4A deposition in glomeruli. R4A (75 μg) and peptide (150 μg) were injected i.p. into SCID mice. Mice were killed 16 hours later, and the kidneys immunostained for IgG deposition. […] FIG. 5B sets forth a representative section from a mouse injected with R4A, and the R4A- specific D peptide DWEYS (SEQ ID NO:2).
Glomerular deposition of the nephritogenic R4A antibody was examined by injecting purified antibody into SCID mice. R4A was obtained from cell culture supernatants or from ascites of mice injected with the cell line. Antibody was purified on a protein G column (Gamma Bind, Pharmacia). SCID mice were obtained from the breeding colony maintained at the Albert Einstein College of Medicine. Six- to eight-week old female mice were used in the experiments. Anti-dsDNA antibodies and IgG2b levels were undetectable in these mice before injection. Individual mice were simultaneously injected i.p. with 75 μg of purified R4A and 150 μg of the appropriate peptide. The mice were killed 16 hours after the injection of antibody.
One kidney from each animal was fixed in 10% formalin and embedded in paraffin. […]

For “DWEYS [L peptide DWEYS, R4A-specific L peptide DWEYS]”, the “Inhibition of R4A deposition in glomeruli / kidney” value was “More anti-dsDNA antibody is present in glomeruli; also recorded: did not”.
In the case of “DWEYS [D peptide DWEYS] (Ac-[dD][dW][dE][dY][dS]-NH2; SMILES CC(=O)N[C@H](CC(=O)O)C(=O)N[C@H](Cc1c[nH]c2ccccc12)C(=O)N[C@H](CCC(=O)O)C(=O)N[C@H](Cc1ccc(O)cc1)C(=O)N[C@H](CO)C(N)=O) [R4A-specific peptide DWEYS made from D amino acids]”, the “Inhibition of R4A deposition in glomeruli / kidney” value is reported as “markedly inhibited the deposition of R4A in the kidney; also recorded: only the D peptide conferred renal protection in vivo”.

target: phage clone φ3-3, no insert (UniProt P03661); assay: phage ELISA, antibody coated, no-insert control phage added, anti-M13 detection; conditions: not given
Chain of UniProt P03661 (P03661 19-424 limits assumed): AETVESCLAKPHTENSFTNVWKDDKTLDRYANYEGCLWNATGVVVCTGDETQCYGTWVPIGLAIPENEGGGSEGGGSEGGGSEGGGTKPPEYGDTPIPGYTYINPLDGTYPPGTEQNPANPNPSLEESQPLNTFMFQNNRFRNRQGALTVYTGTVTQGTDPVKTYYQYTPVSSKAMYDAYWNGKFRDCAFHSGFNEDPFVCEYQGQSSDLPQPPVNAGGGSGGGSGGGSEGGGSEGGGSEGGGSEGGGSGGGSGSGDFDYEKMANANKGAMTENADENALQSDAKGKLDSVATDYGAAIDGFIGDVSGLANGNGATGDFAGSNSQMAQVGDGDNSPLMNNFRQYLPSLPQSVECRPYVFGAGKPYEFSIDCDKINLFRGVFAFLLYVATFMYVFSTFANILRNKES

“monoclonal antibody R4A (mouse anti-dsDNA antibody)” gave a Binding O.D. 405 nm of 0.1 O.D. 405 nm.

tested on: 52b3 binding to dsDNA; assay: Peptide inhibition of 52b3 binding to dsDNA by ELISA; parameters: species or system mouse; conditions: fluid phase peptide, FIG. 3
Method: To determine whether peptide and dsDNA bound within the same antigen binding site of each antibody, inhibition assays were performed with specific peptides. […] These were used in fluid phase to inhibit the binding of antibody to dsDNA. Two peptides, Asp-Trp-Glu-Tyr-Ser-Val-Trp-Leu-Ser-Asn (SEQ ID NO:1) and Asp-Trp-Glu-Tyr-Ser (SEQ ID NO:2), were chosen as the R4A specific epitope; the 52b3 specific peptide was Arg-His-Glu-Asp-Gly-Asp-Trp-Pro-Arg-Val (SEQ ID NO:7).

For RHEDGDWPRV [52b3 specific peptide], the “Inhibition of 52b3 binding to dsDNA” value was “inhibited dsDNA binding by the appropriate antibody only”.
